Assay [1] concerns the target T1, Rhodobacter sphaeroides (Rb.s.) ADPG Ppase (Cereibacter sphaeroides, UniProt Q9RNH7).
T1 construct: made in house
The assay can be described thus: ADPG Ppase enzyme assay (14C Glc-1-P to ADPGlucose) with ADPG borano analogs. The format is biochemical. Also on record: *2.2: unit not given here. The conditions noted are these: for inhibition of Rb.s. ADPG Ppase: 500 μM. An excerpt:
Assaying for ADPGlc synthesis activity involves measuring the amount of 14-C labeled Glc-1-P converted to ADPGlucose (Preiss, J., Shen, L., Greenberg, E., and Gentner, N. (1966) Biochemistry 5, 1833-1845). Briefly, unreacted Glc-1-P is separated from product by the following steps: 1) digestion with alkaline phosphatase (thus removing the negatively charged phosphate); 2) spotting an aliquot of the reaction mixture on to positively charged DE-81 filters (Whatman); and 3) washing the filters with water (thus removing the now neutral C-14 glucose).
To assess the effect of a putative inhibitor, enzyme assays are performed at a subsaturating concentration of substrate (depending on the enzyme, ATP=0.2-1 mM, Glc-1-P=0.5 mM) under standard conditions in the absence and presence of the major activator for each enzyme (1-5 mM depending on enzyme). In this way, the effect of the inhibitors can be evaluated under the range of the expected in vivo conditions. Initial screening of a putative inhibitor typically includes testing at two concentrations (˜25 μM and 1 mM)±major activator with appropriate controls and blanks for a total of 9 assays/inhibitor/enzyme (2 control assays—appropriate enzyme concentrations in the absence of inhibitor, 4 experimental assays; 1 blank in the absence of inhibitors; 2 blanks in the presence of inhibitor (no activator required).
The APDGlc Ppase from Rhodobacter sphaeroides has been used as a model enzyme for initial testing of inhibitors as it has been cloned, sequenced, and expressed in the inventor's laboratory (Meyer et al (1999) Arch. Biochem. Biophys. 372, 179-188; Igarashi, R. Y. and Meyer, C. R. (2000) Arch. Biochem Biophys. 376, 47-58) and the purified recombinant enzyme is readily available. Further, this particular enzyme has the most complex regulation (having partial overlap with nearly every type of ADPG Ppase) and has sufficient homology (ranging from ˜40-70% similarity) to the enzyme primary sequence from the mentioned pathogenic bacteria.
1. OVERVIEW: 2 analogs (ANALOG; stereoisomers I, II) of adenosine-α-P-boranodiphosphoglucose were tested for inhibiting activity against the ADPG Ppase enzyme from Rhodobacter sphaeroides (Rb.s.) ADPG Ppase.
PREMIX: A: 100 mM HEPES (pH 7), 0.5 mg/mL BSA, 0.5 mM Glc-1-P, 0.25 mM ATP subsaturating (near S0.5 value), 5 mM MgCl2, (0.2 U Pyrophosphatase))
(170 μL premix will allow 20 μL for analog vol., 10 μL of E)
II. ANALOG CONC.=5, 50, 500 μM (STOCK CONC.=5 mM) in 50 mM HEPES, pH 7, note that 20 μL of 5 mM in 200 μL assay will yield 500 μM final concentration to obtain 5
• ANALOG I: add 625 μL of HEPES buffer, mix thoroughly • ANALOG II: add 500 μL of HEPES buffer, mix thoroughly 1:10 DILUTION ALIQUOTS OF 5 mM STOCKS are prepared in order to generate stock solutions that will give 50 and 5 μM with the addition of 20 μL. 100 μL aliquots are stored at −20 C RBS ADPG PPASE WT ENZYME CONC.=17 mg/mL (use 1:8000 dilution in Dilution Buffer) The Following Assay Set of 11 are Utilized for Each Analog 1—BLANK (Premix A) 2—BLANK+50 μM ANALOG (A) 3—BLANK+500 μM ANALOG (A) 4—E CON (A) 5—E CON+F6P (B) 6—E+5 μM (A) 7—E+5 μM (B) 8—E+50 μM (A) 9—E+50 μM (B) 10—E+500 μM (A) 11—E+500 μM (B)
Purified Rb.s ADPG Ppase was assayed under standard conditions (0.25 mM ATP [˜S0.5 value], 0.5 mM Glc-1-P, 5 mM Mg, 100 mM HEPES, pH7) in the presence and absence of the activator F6P (1 mM) at 3 concentrations of the analogs: 5, 50, and 500 μM. Analog stock solutions were made in 50 mM HEPES, pH 7). These concentrations should be regarded as estimates as there could have been some breakdown of the compounds during 2 years of storage at −20° C. The analogs had no effect on the background cpm of the assays.

Assay [2] has as its system bacteria. Particulars: cited from earlier work.
For assay [3] the following is noted: single rinse, mouthrinse, 10 subjects; cited from earlier work.
Where [4] appears, read: 5 uM analog, premix B (+1 mM F6P).
Setting [5] is: 50 uM analog, premix A (no F6P).
Setting [6] is: 50 uM analog, premix B (+1 mM F6P).
Setting [7] is: 500 uM analog, premix A (no F6P).
Where [8] appears, read: 500 uM analog, premix B (+1 mM F6P).

A value given as a limit tells only on which side of the number the result lay.

T1 sequence (Q9RNH7 whole entry): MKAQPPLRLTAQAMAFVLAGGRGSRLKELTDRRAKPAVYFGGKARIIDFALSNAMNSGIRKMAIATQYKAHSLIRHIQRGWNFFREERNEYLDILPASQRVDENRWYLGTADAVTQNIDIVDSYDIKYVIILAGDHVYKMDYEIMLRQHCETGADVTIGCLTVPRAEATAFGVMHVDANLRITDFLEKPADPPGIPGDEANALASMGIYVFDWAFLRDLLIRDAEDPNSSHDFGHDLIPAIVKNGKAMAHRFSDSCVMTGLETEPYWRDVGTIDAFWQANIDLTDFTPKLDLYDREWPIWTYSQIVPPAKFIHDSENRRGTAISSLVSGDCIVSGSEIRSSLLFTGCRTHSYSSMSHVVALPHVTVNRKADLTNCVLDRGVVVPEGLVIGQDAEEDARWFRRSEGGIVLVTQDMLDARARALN

As to `BP(=O)(OC[C@H]1O[C@@H](n2cnc3c(N)ncnc32)[C@H](O)[C@@H]1O)OP(=O)(O)O[C@H]1O[C@H](CO)[C@@H](O)[C@H](O)[C@H]1O` (single isomer, unassigned) [Analog I, adenosine-α-P-boranodiphosphoglucose], in assay [1] (5 uM analog, premix A (no F6P)), the “*2.2” value is listed as 0.854, the CPM worked out at 380.67 CPM, the Units/mg came out at 4.02 Units/mg and the “cor. CPM” value is listed as 320.34 CPM. Moreover, in assay [1] (5 uM analog, premix A (no F6P)), the “dil. Corr” value worked out at 68.339 nmol/min/µL, the nmol is reported as 0.39 nmol, the nmol/min was found to be 0.085 nmol/min and the nmol/min/uL came out at 0.0085 nmol/min/µL. Besides, in assay [1] (setting [4]), the “*2.2” value is reported as 19.496, the CPM came out at 7371.33 CPM, the Units/mg amounted to 91.75 Units/mg and the “cor. CPM” value was found to be 7311.00 CPM. In addition, in assay [1] (setting [4]), the “dil. Corr” value worked out at 1559.680 nmol/min/µL, the nmol stood at 8.86 nmol, the nmol/min came to 1.950 nmol/min and the nmol/min/uL amounted to 0.1950 nmol/min/µL. Further, in assay [1] (setting [5]), the “*2.2” value worked out at 0.755, the CPM amounted to 359.33 CPM, the Units/mg is given as 3.55 Units/mg and the “cor. CPM” value worked out at 283.00 CPM. Further, in assay [1] (setting [5]), the “dil. Corr” value was 60.373 nmol/min/µL, the nmol was determined as 0.34 nmol, the nmol/min came out at 0.075 nmol/min and the nmol/min/uL turned out to be 0.0075 nmol/min/µL. Moreover, in assay [1] (setting [6]), the “*2.2” value came out at 18.572, the CPM is on record as 7041.00 CPM, the Units/mg was 87.40 Units/mg and the “cor. CPM” value is on record as 6964.67 CPM. In assay [1] (setting [6]), the “dil. Corr” value worked out at 1485.796 nmol/min/µL, the nmol amounted to 8.44 nmol, the nmol/min stood at 1.857 nmol/min and the nmol/min/uL came out at 0.1857 nmol/min/µL. In assay [1] (setting [7]), the “*2.2” value was found to be 0.284, the CPM was determined as 160.00 CPM, the Units/mg came to 1.33 Units/mg and the “cor. CPM” value was 106.33 CPM. Further, in assay [1] (setting [7]), the “dil. Corr” value turned out to be 22.684 nmol/min/µL, the nmol was 0.13 nmol, the nmol/min was found to be 0.028 nmol/min and the nmol/min/uL is 0.0028 nmol/min/µL. In addition, in assay [1] (setting [8]), the “*2.2” value came out at 11.341, the CPM was found to be 4306.67 CPM, the Units/mg turned out to be 53.37 Units/mg and the “cor. CPM” value came out at 4253.00 CPM. In assay [1] (setting [8]), the “dil. Corr” value worked out at 907.307 nmol/min/µL, the nmol is listed as 5.16 nmol, the nmol/min stood at 1.134 nmol/min and the nmol/min/uL was determined as 0.1134 nmol/min/µL. For the same molecule, the “inhibition of Rb.s. ADPG Ppase” value in assay [1] (absence of the activator F6P) was “about 75%”. In addition, the “inhibition of Rb.s. ADPG Ppase” value in assay [1] (presence of F6P) is around 50%.
In the case of `BP(=O)(OC[C@H]1O[C@@H](n2cnc3c(N)ncnc32)[C@H](O)[C@@H]1O)OP(=O)(O)O[C@H]1O[C@H](CO)[C@@H](O)[C@H](O)[C@H]1O` (single isomer, unassigned) [Analog II, adenosine-α-P-boranodiphosphoglucose], in assay [1] (5 uM analog, premix A (no F6P)), the “*2.2” value is 1.122, the CPM was 477.00 CPM, the Units/mg came to 5.28 Units/mg and the “cor. CPM” value amounted to 420.67 CPM. Besides, in assay [1] (5 uM analog, premix A (no F6P)), the “dil. Corr” value turned out to be 89.743 nmol/min/µL, the nmol is recorded as 0.51 nmol, the nmol/min was determined as 0.112 nmol/min and the nmol/min/uL amounted to 0.0112 nmol/min/µL. In addition, in assay [1] (setting [4]), the “*2.2” value was 19.946, the CPM is given as 7536.00 CPM, the Units/mg was 93.86 Units/mg and the “cor. CPM” value amounted to 7479.67 CPM. In assay [1] (setting [4]), the “dil. Corr” value is 1595.663 nmol/min/µL, the nmol turned out to be 9.07 nmol, the nmol/min is given as 1.995 nmol/min and the nmol/min/uL was 0.1995 nmol/min/µL. In assay [1] (setting [5]), the “*2.2” value was 0.930, the CPM turned out to be 399.67 CPM, the Units/mg turned out to be 4.38 Units/mg and the “cor. CPM” value is 348.67 CPM. Also, in assay [1] (setting [5]), the “dil. Corr” value was 74.383 nmol/min/µL, the nmol was 0.42 nmol, the nmol/min was 0.093 nmol/min and the nmol/min/uL came to 0.0093 nmol/min/µL. In assay [1] (setting [6]), the “*2.2” value was determined as 16.305, the CPM is 6165.33 CPM, the Units/mg amounted to 76.73 Units/mg and the “cor. CPM” value worked out at 6114.33 CPM. Moreover, in assay [1] (setting [6]), the “dil. Corr” value amounted to 1304.390 nmol/min/µL, the nmol is recorded as 7.41 nmol, the nmol/min was 1.630 nmol/min and the nmol/min/uL is 0.1630 nmol/min/µL. In assay [1] (setting [7]), the “*2.2” value is reported as 0.376, the CPM was determined as 194.33 CPM, the Units/mg came out at 1.77 Units/mg and the “cor. CPM” value is recorded as 141.00 CPM. Moreover, in assay [1] (setting [7]), the “dil. Corr” value stood at 30.080 nmol/min/µL, the nmol is 0.17 nmol, the nmol/min is given as 0.038 nmol/min and the nmol/min/uL was 0.0038 nmol/min/µL. For the same molecule, in assay [1] (setting [8]), the “*2.2” value is 7.122, the CPM was determined as 2724.00 CPM, the Units/mg stood at 33.51 Units/mg and the “cor. CPM” value worked out at 2670.67 CPM. Also, in assay [1] (setting [8]), the “dil. Corr” value is 569.743 nmol/min/µL, the nmol stood at 3.24 nmol, the nmol/min amounted to 0.712 nmol/min and the nmol/min/uL is 0.0712 nmol/min/µL. Besides, the “inhibition of Rb.s. ADPG Ppase” value in assay [1] (absence of the activator F6P) was “about 70%”. The “inhibition of Rb.s. ADPG Ppase” value in assay [1] (presence of F6P) is “about 70%”.
In the case of `[F-].[Na+]` [NaF], the “increase in concentration necessary to be bacteriocidal” value in assay [2] (relative to inhibitory concentration) was 30 fold. Moreover, the “concentration required for inhibitory effects” value in assay [2] (vehicles) is reported as above 100 μl/ml.
In the case of `CCCCC(CC)CNC(=N)NC(=N)NCCCCCCNC(=N)NC(=N)NCC(CC)CCCC` (stereo not drawn) [alexidine], the “return to pre-rinse levels after” value in assay [3] was 5 h.
As to `N=C(NCCCCCCNC(=N)NC(=N)Nc1ccc(Cl)cc1)NC(=N)Nc1ccc(Cl)cc1.O=C(O)[C@H](O)[C@@H](O)[C@H](O)[C@H](O)CO.O=C(O)[C@H](O)[C@@H](O)[C@H](O)[C@H](O)CO` [chlorhexidine gluconate], the “return to pre-rinse levels after” value in assay [3] is 7 h.
Consider `CCCCC(CC)CN1CN(CC(CC)CCCC)CC(C)(N)C1` (stereo not drawn) [hexetidine], for which, in assay [3], the “return to pre-rinse levels after” value is 1.5 h.
